What is called melting point is the temperature of the solid-liquid transition. Molecule `O=[N+]([O-])c1cc2c(c3ccc(S(=O)(=O)NCCO)cc13)C(CCl)CN2` (centres undefined) had a melting point of 173 to 174 °C.
To `CCCC(=O)c1cc2c(=O)c(C(=O)O)cn(CC)c2cc1C` belongs 208 to 209 °C; to `Cc1cccc(C)c1-c1cc(O)c(SCc2ccccc2)c(=O)o1`, 140 to 143 °C.
To `Cc1nc(-c2ccc(Cl)cc2C(=O)c2ccccc2)n[nH]1` belongs 148 to 150 °C.
In turn, `CC(C)OC(=O)NC(C(=O)N1CCCC1C(=O)O)C(C)(C)SC(C)C` (centres undefined) had a melting point of 128 to 130 °C.
Regarding `CC(=O)c1ccc(OCCCN2CCC(c3noc4cc(F)ccc34)CC2)c(O)c1`, the melting point was 122 to 124 °C.
Molecule `CC1(CCl)CC(SCc2c(C(F)(F)F)n[nH]c2Cl)=NO1` (centres undefined) had a melting point of 105 to 107 °C.
`CNC(=O)N(O)C(C)c1ccc(C(F)(F)F)cc1` (centres undefined) returned a melting point of 124 to 125 °C.
To `COC(=O)c1cc(I)cc2c1Nc1ccccc1C2` belongs 148 to 150 °C; to `O=C1Nc2cc(-c3ccc(C(F)(F)F)cc3)ccc2C1c1cc(Cl)ccc1O` (centres undefined), 221 to 225 °C; to `COc1ccc(CNc2nc(CCCCC(=O)O)nc3sc(C)c(C)c23)cc1Cl`, 156 °C.
Molecule `O=c1cc(Cl)nc2sc(SCc3ccccc3)nn12` registered a melting point of 138 to 140 °C.
The molecule `O[C@H](COc1cccc2[nH]ccc12)CN1CC=C(c2c[nH]c3cc(Cl)ccc23)CC1` came in with a melting point of 200 to 202 °C.
In the case of `Cc1cc(C)cc(Sc2cncc3sc(C(N)=O)cc23)c1`, the melting point is 177 to 179 °C.
With `CCc1ccc(NC(=O)c2ccccc2CN2C(=O)C3(COc4cc5c(cc43)CCO5)c3ccccc32)cc1` (centres undefined), the melting point was > 230 °C.
In the case of `CC(C)c1ccc(-n2c(CC(=O)O)c(C(=O)O)c3cc(Oc4ccc(Cl)cc4)ccc32)cc1`, the melting point fell in the range of 174 to 180 °C.
With `Cc1cc(C(=O)CCCCCCCCC(=O)c2cc(C)c(O)c(C(C)(C)C)c2)cc(C(C)(C)C)c1O`, the melting point lay within 165 to 168 °C.
To `CN1C(=O)c2cccnc2NS1(=O)=O` belongs 290 to 292 °C; to `COc1cc2c(c3c1OC(C)(C)C3)C(c1cccc(Nc3cccnc3)c1)=NC(C)(C)C2`, 204 to 205 °C; to `CC(C)(C)OC(=O)c1cc(Cl)nc(Cl)c1`, 79 to 81 °C.
As to `Sc1nc(-c2ccc(Cl)c(Cl)c2)c(-c2cccs2)[nH]1`, the melting point is 263 to 265 °C.
The molecule `N#Cc1c(OCCN2CCOCC2)cccc1Oc1ccc(-c2cn(C3CCOCC3)c3ncnc(N)c23)cc1` showed a melting point of 110 °C.
Take `CCc1cc(NC(=O)N2CCN(c3cc(C)cc(C)c3)CC2)c(N2CCNCC2)nc1C`: the melting point lay within 100 to 102 °C.
For `CS(=O)(=O)c1ccc(-n2cnc(Cl)c2-c2ccc(OC(F)(F)F)cc2)cc1`, the melting point was in the range of 136 to 138 °C.
`CCC(CC(O)C(CC1CCCCC1)NC(=O)C(Cc1c[nH]cn1)NC(=O)C(Cc1ccccc1)C(=O)NO)C(C)C` (centres undefined) registered a melting point of 123 °C.
In turn, `O=C(O)Cn1c(-c2cc(Br)co2)nc2cccnc21` returned a melting point of 229 to 231 °C.
To `O=C1CCC(=NNc2ccc(F)cc2)c2ncccc2N1` belongs 232 to 233 °C; to `CCc1nc(-c2ccc(OCCCn3cnc4ccccc43)cc2)no1`, 100 to 101 °C.
To `CS(=O)(=O)c1ccc(C2=C(c3ccc(F)cc3)CCC2)cc1` belongs 138 to 139 °C.
On to `OCC1OC(n2cnc3c(NCc4cccc(I)c4)ncnc32)C(O)C1O` (centres undefined), for which the melting point is 172 °C.
To `CN1CCC2(CC1=O)c1ccccc1Oc1ccccc12` belongs 158 to 159 °C; to `CCc1cc(O)cc(O)c1`, 97 to 98 °C; to `C=CC(C)c1cc(C)c2c(c1O)C(N(C)C(C)=O)C1CCCCC21` (centres undefined), 143 to 145 °C.
On to `Cc1ccc(S(=O)(=O)Nc2cc(C3CCCC3)c([N+](=O)[O-])cc2Br)cc1`, for which the melting point came to 122 °C.
The molecule `CNc1cccc2c1nc(-c1c(F)cccc1F)n2Cc1c(F)cccc1F` registered a melting point of 194 to 195 °C.
Turning to `NCC1=C(CCC(=O)O)CC=CC1`, the melting point is 228 to 229 °C.
As for `CS(=O)(=O)c1ccc(Oc2ccc([N+](=O)[O-])c(OCc3ccccc3)c2)cc1`, the melting point was in the range of 142 to 143 °C.
As to `COC(=O)c1[nH]c2cc(Cl)ccc2c1-c1ccc(F)cc1`, the melting point was in the range of 172 to 183 °C.
To `CCc1nn(C)c(CC)c1NC(N)=S` belongs 234 to 235 °C.
`C=C(C(=O)O)c1ccc(Cl)cc1` gave a melting point of 110 °C.
`O=C1C[C@H](O)[C@H](CC2CCCCC2)N1` registered a melting point of 141 to 143 °C.
To `CCOc1cnccc1-c1nc2n(C3CCCC3)[nH]c(CC)c-2c(=O)n1` belongs 179 to 180 °C.
`CCNc1ccc(C2(C)C(=O)Nc3cc(Cl)cc(Cl)c3C2=O)cc1` (centres undefined): the melting point lay in the range of 197 to 198 °C.
In the case of `Cc1cnc(CNC(=O)CCc2cnoc2-c2ccc(Cl)cc2)cn1`, the melting point was in the range of 124 to 125 °C.
Molecule `CCCc1nn(-c2ccc(C(F)(F)F)cn2)cc1CCCOc1cc(CCC(=O)O)n(C2CCCCC2)n1` had a melting point of 164 to 165 °C.
With `CC(C)c1nc(C(N)(C(F)(F)F)C(F)(F)F)[nH]c1-c1ccc(S(C)(=O)=O)cc1`, the melting point is 155 to 157 °C.
To `Cc1cc(NC(=O)NN(c2ccccc2)c2cccc(C(=N)N)c2)ccc1N1CCCCC1=O` belongs > 300 °C; to `COC(=O)c1cc(C(=O)c2c(C)c(OC)c3c(OCc4ccccc4)cccn23)ccc1NC(=O)C(F)(F)F`, 214 °C.
Take `Cc1ccc2nc(-c3cc(C(F)(F)F)nn3-c3ccc(S(C)(=O)=O)cc3)oc2c1`: the melting point was in the range of 209 to 210 °C.
`CCc1nn(C2CCC2)c2cc(C(=O)Nc3c(Cl)cncc3Cl)ccc12` displayed a melting point of 166 to 168 °C.
`CCOC(=O)C1=C(C)N(C(C)=O)C(c2csc(C)n2)=NC1c1ccccc1` (centres undefined): the melting point is 140 to 142 °C.
`COc1ccc(Nc2ccc(Cl)cc2C(=O)O)cc1` registered a melting point of 188 to 189 °C.
`CCNC(=S)OCCOc1ccc(Oc2ccc(F)cc2)cc1`: the melting point lay within 73 to 75 °C.
`O=C1C=C(CBr)C(=O)C(CCC2=CC(=O)C=C(CBr)C2=O)=C1` showed a melting point of 146 to 147 °C.
As to `CON(C)C(=O)c1cc2n(n1)CCC2`, the melting point was 45 to 50 °C.
As for `Cc1nnc(-c2ccccc2F)n2nc(OCc3ncnn3C)c(-c3ccsc3)c12`, the melting point was 124 to 129 °C.
Molecule `Fc1cccc(Cl)c1-c1c(Cl)cc(-c2ccccn2)nc1Cl` returned a melting point of 45 °C.
To `CC(C)NC1=NS(=O)(=O)c2cc(C(F)(F)F)ccc2N1` belongs 287 to 289 °C; to `O=C(c1nccs1)c1cnn2c(-c3cccc(NC(=O)C4CC4)c3)ccnc12`, 226 to 229 °C; to `O=C(NNS(=O)(=O)c1ccccc1)c1cccc2cccnc12`, 173 to 175 °C.
For the molecule `CS(=O)(=O)c1cccc(NC(=O)c2cnn3c(C(F)(F)F)cc(-c4ccc(OC(F)(F)F)cc4)nc23)c1`, the melting point came out at 245 °C.
Turning to `CCN(O)C(=O)CCc1ccc2c(c1)C(=O)c1ccccc1CO2`, the melting point was determined as 120 °C.
The molecule `CCOC(=O)c1sc(N2CCNC2=O)nc1C` yielded a melting point of 197 to 199 °C.
To `CC(C)C1C(=O)Nc2ccc(O)cc21` (centres undefined) belongs 175 °C.
Turning to `O=c1c2c[nH]c3ccccc3n-2c(=O)n1-c1ccccc1`, the melting point was 231 to 234 °C.
`COc1ccccc1NC(=O)c1ccc(CO)cc1` gave a melting point of 104 to 106 °C.
Consider `CON=C1SC(C)(c2ccccc2)C(=O)N1Nc1ccccc1` (centres undefined), for which the melting point lay in the range of 133 to 134 °C.
The molecule `O=C(O)c1cc(-c2ccc3c(c2)CCO3)nn(CCCc2ccccc2Cl)c1=O` displayed a melting point of 137 to 140 °C.
To `O=C1OC(CCCCN2CCN(c3ncccn3)CC2)CN1c1ccccc1` (centres undefined) belongs 94 to 96 °C.
Molecule `CC1(C)Cc2cccc(OCCNCc3cccc(C4=C(F)CCC4)c3)c2O1` yielded a melting point of 145 °C.
Molecule `CSC1C(=O)Nc2c(C(=O)c3ccc(F)cc3)cccc21` (centres undefined) came in with a melting point of 165 to 168 °C.
Regarding `N=C(N)N1CCc2[nH]cnc2C1`, the melting point turned out to be 310 °C.
With `C(=Cc1ccnc2[nH]c3ccccc3c12)c1ccccc1`, the melting point was > 220 °C.
In turn, `CS(=O)(=O)On1nnc2ccccc2c1=O` displayed a melting point of 132 to 134 °C.
`Cc1cc(N(N)c2ccccc2)nc(N)n1` showed a melting point of 173 to 174 °C.
Turning to `COc1cc2c(cc1OC)CCCC(C(=O)N1CCN(C(=O)c3cc(OC)c(OC)c(OC)c3)C(C(=O)N(C)C)C1)=C2` (centres undefined), the melting point is 177 to 178 °C.
Take `CC(=O)Nc1ccc2oc(=O)[nH]c2c1`: the melting point fell in the range of 295 to 300 °C.
For the molecule `N#CC1c2cc(Cl)c(Cl)cc2C=CN1C(=O)c1ccccc1` (centres undefined), the melting point lay in the range of 194 to 196 °C.
With `CCc1nc2c(N)nc3cccnc3c2n1CCCCCC(=O)N1CCOCC1`, the melting point lay within 163 to 165 °C.
With `Nc1nc(OCCC2CCCCC2)nc2c1ncn2C1OC(CO)C(O)C1O` (centres undefined), the melting point was in the range of 105 to 112 °C.
In turn, `CC(=O)Oc1cc2c(c(OC(C)=O)c1)C1CCC3(C)C(=O)CCC3C1CC2` (centres undefined) returned a melting point of 179 to 180 °C.
In turn, `Cc1ccc(-c2nc3ccc(C#N)cn3c2CN(C)C(=O)CC(C)C)cc1` showed a melting point of 151 to 153 °C.
`Oc1ccc(F)c2c1C[C@@H](N(C1CCC1)C1CCC1)CO2` had a melting point of 170 to 172 °C.
In turn, `Cc1cc(=O)c(-c2ccc(Oc3ccc(OC(F)(F)F)cc3)cc2)c(C)[nH]1` registered a melting point of 244 to 248 °C.
Molecule `OCc1cc(OCc2ccc3ccccc3n2)no1` showed a melting point of 111 to 112 °C.
On to `CCOCc1nc2c(N)nc3cc(OCCCN4CCCC4=O)ccc3c2n1CCCCNC(=O)NC(C)C`, for which the melting point lay in the range of 98 to 101 °C.
Molecule `CC1(C)CCN(Cc2ccc(COc3cccc4c3CN(C3CCC(=O)NC3=O)C4=O)cc2)CC1` (centres undefined) yielded a melting point of 168 to 170 °C.
To `Cc1cc(Cl)ccc1OCC(=O)N1Cc2ccc(C(=O)c3ccc(Cl)cc3)n2Cc2ccccc21` belongs 175 to 176 °C; to `COCc1ccoc1-c1cccc(-n2c(N)nc3ccccc32)c1`, 134 to 136 °C.

Values taken from a melting point compilation (Tetko et al.; mined from patent text by program, amines drawn as free bases though some values may be those of a salt).
